Assay results taken from publication PMC11813896, “Bis(7)-harmine derivatives as potential multi-target anti-Alzheimer agents” (Frontiers in Chemistry, 2025).
Like-named read-outs stand apart in the source and are kept apart here.

Key:
MAO-B = tested on: MAO-B; design: method as in Du et al., 2023; Haider et al., 2018; details: ref Du et al., 2023; Haider et al., 2018; read-out: MAO-B (compound 6 of Figure 1); cited from earlier work
MAO-A = details: 2023, cited from earlier work
recombinant hMAO-B = target: T1, recombinant hMAO-B (Homo sapiens, UniProt P27338); test: biochemical; details: read-out: inhibition of hMAO-B in primary screening
T1 construct: purchased Sigma-Aldrich
T1 sequence (P27338 1-520): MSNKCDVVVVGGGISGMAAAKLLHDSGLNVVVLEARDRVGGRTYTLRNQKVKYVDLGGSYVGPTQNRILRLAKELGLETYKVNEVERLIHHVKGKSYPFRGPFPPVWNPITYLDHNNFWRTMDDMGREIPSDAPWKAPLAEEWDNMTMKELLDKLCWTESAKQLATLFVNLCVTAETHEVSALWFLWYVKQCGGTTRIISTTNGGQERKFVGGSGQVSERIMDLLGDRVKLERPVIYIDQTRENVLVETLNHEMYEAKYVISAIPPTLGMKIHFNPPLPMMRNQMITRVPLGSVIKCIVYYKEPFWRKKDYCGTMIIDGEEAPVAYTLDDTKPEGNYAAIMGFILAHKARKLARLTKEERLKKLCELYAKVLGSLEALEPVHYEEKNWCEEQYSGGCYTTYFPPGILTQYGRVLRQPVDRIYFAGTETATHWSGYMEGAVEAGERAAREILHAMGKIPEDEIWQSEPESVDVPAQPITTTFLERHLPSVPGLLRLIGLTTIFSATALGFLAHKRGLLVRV
Method: Briefly, the compounds under investigation and the reference inhibitor were preincubated with kynuramine at 37°C for 10 min in 96-well microplates. […] The enzymatic reactions were terminated by adding 400 μL of 2 N NaOH and 1,000 μL of water, followed by centrifugation at 16,000 g for 10 min. Subsequently, the concentrations of MAOs that produced 4-hydroxyquinoline were determined by measuring the fluorescence of the supernatant using a Varioskan Flash Multimode Reader ([…]) with excitation and emission wavelengths set at 310 nm and 400 nm, respectively. The IC50 values were calculated from dose-response curves and expressed as the mean ± standard deviation. These values were determined based on at least three independent experiments, each performed in triplicate.

hAChE = hAChE (Homo sapiens, UniProt P22303); test: biochemical; details: read-out: inhibition of hAChE in primary screening
Sequence of hAChE (P22303 32-614): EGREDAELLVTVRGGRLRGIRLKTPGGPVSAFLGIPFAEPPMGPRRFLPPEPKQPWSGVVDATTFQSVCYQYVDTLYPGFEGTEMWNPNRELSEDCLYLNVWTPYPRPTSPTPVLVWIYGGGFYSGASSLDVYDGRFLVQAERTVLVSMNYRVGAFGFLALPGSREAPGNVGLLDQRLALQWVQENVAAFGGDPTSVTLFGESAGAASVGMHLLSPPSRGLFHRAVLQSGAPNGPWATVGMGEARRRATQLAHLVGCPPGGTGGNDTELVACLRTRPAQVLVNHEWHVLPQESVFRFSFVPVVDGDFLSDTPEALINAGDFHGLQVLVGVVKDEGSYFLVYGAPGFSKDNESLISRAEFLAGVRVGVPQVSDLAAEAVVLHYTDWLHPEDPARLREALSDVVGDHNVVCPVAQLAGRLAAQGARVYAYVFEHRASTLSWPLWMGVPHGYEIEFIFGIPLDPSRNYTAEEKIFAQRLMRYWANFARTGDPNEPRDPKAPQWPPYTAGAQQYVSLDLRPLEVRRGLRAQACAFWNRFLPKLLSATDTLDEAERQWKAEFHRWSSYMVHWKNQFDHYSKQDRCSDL
Method: 50 μL of hAChE (0.02 unit/mL) or hBChE (0.02 unit/mL) were incubated with 10 μL of the compound in 96-well plates at 37°C for 6 min. Subsequently, 30 μL of a substrate solution containing acetylthiocholine iodide (ATCI) or butyrylthiocholine iodide (BTCI) at a concentration of 0.01 M was added, and the mixture was further incubated at 37°C for an additional duration of 12 min.

GSK-3β = tested on: GSK-3β; design: method as in Beato et al., 2021; Li et al., 2023; details: read-out: GSK-3β (harmine, Figure 1); ref Beato et al., 2021; Li et al., 2023; cited from earlier work
hBuChE = hBuChE (Homo sapiens, UniProt P06276); test: Ellman's assay, hBuChE inhibition; assay type: biochemical; details: read-out: inhibition of hBuChE in primary screening
Sequence of hBuChE (P06276 29-602): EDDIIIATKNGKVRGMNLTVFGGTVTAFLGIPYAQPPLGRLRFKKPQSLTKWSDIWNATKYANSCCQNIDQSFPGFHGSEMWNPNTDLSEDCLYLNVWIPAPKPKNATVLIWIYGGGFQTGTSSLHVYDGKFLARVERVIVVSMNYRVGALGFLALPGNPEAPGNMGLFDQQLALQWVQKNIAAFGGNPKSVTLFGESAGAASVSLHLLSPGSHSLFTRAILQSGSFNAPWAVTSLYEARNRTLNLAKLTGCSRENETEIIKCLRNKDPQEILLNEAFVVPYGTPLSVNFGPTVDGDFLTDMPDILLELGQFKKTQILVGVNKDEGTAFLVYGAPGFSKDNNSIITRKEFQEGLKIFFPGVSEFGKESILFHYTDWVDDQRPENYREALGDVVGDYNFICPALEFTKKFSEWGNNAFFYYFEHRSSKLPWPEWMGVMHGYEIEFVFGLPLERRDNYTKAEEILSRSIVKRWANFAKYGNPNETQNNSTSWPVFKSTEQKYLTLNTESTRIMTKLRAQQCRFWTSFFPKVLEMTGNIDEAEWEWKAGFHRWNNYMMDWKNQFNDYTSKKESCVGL
Method: The Ellman’s assay was utilized to assess the inhibitory potential of novel bis(7)-harmine derivatives against hAChE and hBuChE. 50 μL of hAChE (0.02 unit/mL) or hBChE (0.02 unit/mL) were incubated with 10 μL of the compound in 96-well plates at 37°C for 6 min. Subsequently, 30 μL of a substrate solution containing acetylthiocholine iodide (ATCI) or butyrylthiocholine iodide (BTCI) at a concentration of 0.01 M was added, and the mixture was further incubated at 37°C for an additional duration of 12 min. Finally, the activity was measured by adding 150 μL of a solution containing 5,5′−dithiobis (2-nitrobenzoic acid) (DTNB) at a concentration of 0.01 M, followed by measuring absorbance at a wavelength of 415 nm using an Evolution 300 PC UV-Vis Spectrophotometer.

BuChE = details: read-out: BuChE (harmine, Figure 1); ref Beato et al., 2021; Li et al., 2023; cited from earlier work
AChE = details: read-out: AChE (harmine, Figure 1); ref Beato et al., 2021; Li et al., 2023; cited from earlier work
Aβ = tested on: Aβ; design: method as in Boländer et al., 2012; details: ref Boländer et al., 2012; read-out: IC50 for inhibiting Aβ aggregation (bis-(arylvinyl)pyrazines); cited from earlier work
Tau = tested on: Tau; design: method as in Boländer et al., 2012; details: ref Boländer et al., 2012; read-out: IC50 for inhibiting tau protein phosphorylation (bis-(arylvinyl)pyrazines); cited from earlier work

For `Cc1nccc2c1[nH]c1cc(OCc3cn(Cc4ccccc4Cl)nn3)ccc12` [Compound 6], the IC50 (MAO-B) is given as 260 nM and the IC50 (MAO-A; ref Du et al., Haider et al., 2018, read-out: MAO-A (compound 6 of Figure 1)) is given as 830 nM.
In the case of `COc1ccc2c(c1)[nH]c1c(C)nccc12` [Harmine], the inhibition at 1 µM (recombinant hMAO-B) is listed as 23.5%, the inhibition at 1 µM (hAChE) is listed as 30.9% and the IC50 (GSK-3β) is listed as 31300 nM. For the same molecule, the IC50 (MAO-A; read-out: MAO-A (harmine, Figure 1), ref Beato et al., 2021, Li et al.) was 380 nM, the inhibition at 1 µM (hBuChE) was 23.5% and the IC50 (BuChE) was 75100 nM. The IC50 (AChE) was 9050 nM.
For `COc1ccc(/C=C/c2cnc(/C=C/c3ccc(OC)cc3)cn2)cc1` [Compound 3, Bis-(arylvinyl)-pyrazines], the IC50 (Aβ) is given as 17 nM and the IC50 (Tau) is given as 13 nM.
